Source: patent US20180235234A1, “COMPOSITIONS COMPRISING A BIOLOGICAL CONTROL AGENT AND AN INSECTICIDE” (priority 2012, published 2018)

Tests used:
Type in all cases: in vivo
Myzus persicae = Myzus persicae spray test (MYZUPE), Chinese cabbage leaf disks; conditions: mortality
Protocol: (§1) For all examples the efficiencies of the compositions comprising at least one BCA and at least one specific insecticide has been determined by the “Colby-formula”. The expected efficacy of a given combination of two compounds is calculated as follows (see Colby, S. R., “Calculating Synergistic and antagonistic Responses of Herbicide Combinations”, Weeds 15, pp. 20-22, 1967): If • X is the efficacy expressed in % mortality of the untreated control for test compound A at a concentration of m ppm respectively m g/ha, • Y is the efficacy expressed in % mortality of the untreated control for test compound B at a concentration of n ppm respectively n g/ha, • E is the efficacy expressed in % mortality of the untreated control using the mixture of A and B at m and n ppm respectively m and n g /ha, then
(§2) If the observed insecticidal efficacy of the combination is higher than the one calculated as “E”, then the combination of the two compounds is more than additive, i.e., there is a synergistic effect.
Myzus persicae—Spray Test (MYZUPE)
(§3) To produce a suitable preparation of active compound, 1 part by weight of active compound is mixed with the stated amount of solvent and emulsifier, and the concentrate is diluted with emulsifier-containing water to the desired concentration. To produce a suitable preparation of a spore suspension the spores are diluted with emulsifier-containing water to the desired concentration.
Chinese cabbage (Brassica pekinensis) leaf—disks infected with all instars of the green peach aphid (Myzus persicae), are sprayed with a preparation of the active ingredient of the desired concentration.
After the specified period of time, mortality in % is determined. 100% means all aphids have been killed; 0% means none of the aphids have been killed. The mortality values determined thus are recalculated using the Colby-formula (see above).

Phaedon cochleariae = Phaedon cochleariae spray test, Chinese cabbage leaf disks; conditions: 0.16 g ai/ha; mortality
Protocol: as §1, §2
Phaedon cochleariae—Spray Test […]
After the specified period of time, mortality in % is determined. […] The mortality values determined thus are recalculated using the Colby-formula (see above).

Spodoptera frugiperda [1] = test: Spodoptera frugiperda spray test, maize leaf sections; conditions: mortality
Protocol: as §1, §2
(§4) Spodoptera frugiperda—Spray Test
as §3, with “preparation of the active compound,” for “preparation of active compound,”
Maize (Zea mais) leaf sections are sprayed with a preparation of the active ingredient of the desired concentration. Once dry, the leaf sections are infested with fall armyworm larvae (Spodoptera frugiperda).
After the specified period of time, mortality in % is determined. 100% means all caterpillars have been killed and 0% means none of the caterpillars have been killed. The mortality values determined thus are recalculated using the Colby-formula (see above).

Aphis gossypii = Aphis gossypii spray test, cotton leaves; conditions: 2 ppm; mortality
Protocol: as §1, §2
Aphis gossypii—Spray Test […]
After the specified period of time, the mortality in % is determined. […] The mortality values determined thus are recalculated using the Colby-formula (see above).

Spodoptera frugiperda [2] = test: Spodoptera frugiperda spray test, cotton leaves; conditions: mortality
Protocol: as §4
To produce a suitable preparation of active compound, 1 part by weight of active compound was mixed with the stated amount of solvent and was diluted with water, containing an emulsifier concentration of 1000 ppm, to the desired concentration. To produce a suitable preparation of a spore suspension the spores were diluted with emulsifier-containing water to the desired concentration. Further test concentrations were prepared by dilution with emulsifier-containing water. Ammonium salt and/or penetration enhancer in a dosage of 1000 ppm were added if necessary.
Cotton leaves (Gossypium hirsutum) were treated by being sprayed with the preparation of the active compound of the desired concentration and were infested with caterpillars of the fall army worm (Spodoptera frugiperda).
After the specified period of time % mortality was determined. 100% means all the caterpillars were killed, and 0% means none of the caterpillars were killed.

## CC1(C)[C@H](C(=O)O[C@H](C#N)c2cccc(Oc3ccccc3)c2)[C@@H]1C=C(Br)Br [Deltamethrin (I116), Deltamethrin]
Myzus persicae; 0.032 g/ha
  Efficacy in % after 6 d: 0%

## CC1(C)C(C=C(Cl)Cl)C1C(=O)OC(C#N)c1ccc(F)c(Oc2ccccc2)c1 (stereo not drawn) [ß-Cyfluthrin (I106), beta-Cyfluthrin]
Myzus persicae; 0.16 g/ha
  Efficacy in % after 1 d: 0%
  Efficacy in % after 6 d: 0%
Myzus persicae; 2 g/ha
  Efficacy in % after 6 d: 0%
Phaedon cochleariae
  Efficacy in % after 6 d: 0%
Spodoptera frugiperda [1]; 0.16 g ai/ha
  Efficacy in % after 6 d: 0%
Spodoptera frugiperda [1]; 0.4 g ai/ha
  Efficacy in % after 6 d: 33%

## Cc1c(F)c(F)c(COC(=O)[C@@H]2[C@H](/C=C(\Cl)C(F)(F)F)C2(C)C)c(F)c1F (racemic) [Tefluthrin (I134), Tefluthrin]
Myzus persicae; 2 g/ha
  Efficacy in % after 6 d: 0%
Spodoptera frugiperda [1]; 0.4 g ai/ha
  Efficacy in % after 6 d: 17%
Spodoptera frugiperda [1]; 4 g ai/ha
  Efficacy in % after 6 d: 50%
Spodoptera frugiperda [1]; 10 g ai/ha
  Efficacy in % after 2 d: 0%
Aphis gossypii
  Efficacy in % after 1 d: 15%

## Cc1c(COC(=O)[C@@H]2[C@H](/C=C(\Cl)C(F)(F)F)C2(C)C)cccc1-c1ccccc1 (racemic) [Bifenthrin]
Spodoptera frugiperda [2]; 0.5 ppm
  Efficacy in % after 3 days: 0%
  Efficacy in % after 6 days: 20%
Spodoptera frugiperda [2]; 2 ppm
  Efficacy in % after 2 days: 20%
Spodoptera frugiperda [2]; 8 ppm
  Efficacy in % after 2 days: 60%
